Laboratory results taken from patent US20230285258A1, “A SUNSCREEN FORMULATION” (priority 2019, published 2023).

Columns and labels:
[1] = formulation containing 10%, 2 mg/cm^2 daily for a week, cited from earlier work
[2] = Mice skin penetration test (ointment on shaved back, plasma HPLC)
Experimental: Mice preparation and blood sample taking: A group of mice ranging from 16 to 60 were fed with adequate food and water for 3 days. Twelve hours before the test the food was removed, and only water was given. Usually 12 mice were randomly selected with 2 mice assigned for each time points of 5, 15, 30, 60, 90, 120 minutes. Sometimes 3 mice may be selected for certain sample time points. Two hours before the test the mice were subjected to anesthesia and the hair on the back (2.5--3.0 cm^2) was removed. After recovering from anesthesia mice will be applied with testing ointment sample. The exact same testing procedures will be carried out with the control standard sample. At 5, 15, 30, 60, 90, 120 min. Blood sample (1 mL) will be collected after removing the eyes.
Blood sample pretreatment: after the blood sample was taken, it was immediately subjected to centrifugation 10 min. at 12000 rpm, supernatant plasma layer was taken, preserved at -20° C. for later use.
Blood sample preparation: Accurately transfer 150 µL plasma sample to a 1.5 mL EP test tube. Add methanol and acetonitrile 200 µL, respectively. Vertex mix for 1 min., then centrifuge for 10 min. at 12000 rpm. Precisely transfer the supernatant solution to another test tube. At 40° C. blow N2 through to dryness. To the solids left add methanol 150 µL, vertex mix for 1 min. centrifuge at 12000 rpm for 10 min. Supernatant solution was used directly for HPLC analysis.
(4-Aminomethoxy-2-hydroxy-phenyl)-phenyl-methanone-PAA-OMe-OPr(40): Column: C18 RP column (250 × 4.6 mm, 5 µm); column temperature: 25° C.; mobile phase: MeOH:0.05% Formic Acid = 70:30; Flow rate: 1.0 mL/min.; Wavelength: 310 nm; Injection volume: 20 L;
1-[4-(3-Amino-propoxy)-2-hydroxy-phenyl1-3-(4-tert-butyl-phenyl)-propane)-1,3-dione-PAA-OMe-OPr(40): Column: C18 RP column (250 × 4.6 mm, 5 m); column temperature: 25° C.; mobile phase: MeOH:0.05% Formic Acid = 80:20; Flow rate: 1.0 mL/min.; Wavelength: 360 nm; Injection volume: 20 µL; […]

[3] = Urine samples collected in 2007-2009 from Californian females; assay type: in vivo, human; details: from 22.9 ng/mL to 200 ng/mL
Experimental: Since the first day of sunscreen usage in 1930s, the exposure to sunscreen agents has begun. Initially the scope and frequency of the sunscreen usage among the human population was very limited. Therefore, the levels of UV filters found in human samples were usually low. However, for the last 20 years, the situation changed dramatically. In one epidemiological study conducted in 2003-2004, 2517 urine samples from United States (US) general population were analyzed for the presence of oxybenzone (benzophenone-3, bp-3), as part of the 2003-2004 National Health and Nutrition Examination Survey [A.M. Calafat, L.Y.Wong, X.YE, J.A.Reidy, L.L.Needham, Concentrations of the sunscreen agent benzophenone-3 in residents of the United States: National Health and nutrition Examination Survey 2003-2004, Environ. Health Perspect, 116(2008)893-897]. Oxybenzone was detected in 97% of the all samples with mean concentration of 22.9 ng/ml and 95th percentile concentration of 1040 ng/ml. As the data indicated the sunscreen agent occurrences is widespread. […] 543(2016)28-36]. […]

[4] = Californian females 2007-2009; cited from earlier work
[5] = US general population 2003-2004; cited from earlier work

Molecule	mean urine concentration, females ([1]; adults)	mean urine concentration, males ([1]; adults)	maximum plasma concentration, females [1]	maximum plasma concentration, males [1]	hydrolysis in the plasma ([2]; inferred from mice blood samples after topical application)	sunscreen agent detected in plasma/blood samples by HPLC ([2]; mice, samples at 5, 15, 30, 60, 90, 120 min after topical application)	skin penetration of the sunscreen agent ([2]; topical test formulation on mice back, plasma at 5-120 min, compared with control formulation)	increase of average concentration in urine sample compared to the 2003-2004 study [3]	average level in urine samples [4]	highest level in urine samples [4]	95th percentile concentration in urine [5]	mean concentration in urine [5]
CCCCC(CC)COC(=O)C=Cc1ccc(OC)cc1 (stereo not drawn) [octyl methoxycinnamate]	5 ng/mL	8 ng/mL	10 ng/mL	2 ng/mL	–	–	–	–	–	–	–	–
Cc1ccc(C=C2C(=O)C3(C)CCC2C3(C)C)cc1 (stereo not drawn) [4-methylbenzylidene camphor]	5 ng/mL	–	20 ng/mL	20 ng/mL	–	–	–	–	–	–	–	–
Octandioic Oxybenzone Ester	–	–	–	–	rapid hydrolysis	no octandioic oxybenzone esters was detected	skin penetration of octandioic oxybenzone ester	–	–	–	–	–
COc1ccc(C(=O)c2ccccc2)c(O)c1 [oxybenzone]	60 ng/mL	–	200 ng/mL	300 ng/mL	–	–	–	more than 9 folds	around 200 ng/ml	up to 13000 ng/ml	1040 ng/mL	22.9 ng/mL
